Data set [1] in a line: Pharmacokinetics test in rats (plasma). It counts as in vivo, SD rats. The note with it: for BA: 2.5 mg/kg po vs 1.25 mg/kg iv; for AUC / Cmax / Tmax: SD, rat, plasma; for AUC: n = 3. Here is the method: (§1) 1) Test Animal and Administration of Test Compound
(§2) Three 7 week-old ICR mice (weight: about 30 g) and three 8 week-old SD rats (weight: about 250 g) were used per test group. A solution prepared by dissolving the compounds of Examples 9 and 17 in excipient (DMSO/Tween 20/saline: 0.1/0.6/2.3, v/v/v) were administered to each experimental animal. The test compound was orally administered in an amount of 10 mL per kg of body weight or intravenously administered in an amount of 5 mL per kg of body weight through the fine vein.
2) Blood Concentration Test
At 30 min, 1 hr, 2 hr, 4 hr, 10 hr and 24 hr after oral administration of the test compounds, the blood was collected from periorbital veins into the tube containing heparin (1000 IU/mL, 3 μl) for the mice, and from jugular vein for rats. The blood sample was centrifuged at 12,000 rpm for 2 min to obtain plasma. The obtained plasma was kept in freezer at −80° C. until the analysis.
(§3) The sample was analyzed using LC/MSMS system under the following condition:
(§4) The sample was pretreated as follows:
50 μL of plasma was placed in 2.0 mL of tube having a cap (Eppendorf Co.) and acidified by adding 20 μL of 0.1% formic acid thereto. An internal standard solution and 1 mL of ethyl acetate as an extract solvent were added to the resultant solution. The resultant solution was mixed using thermomixer (Eppendorf Co.) at 1400 rpm for 5 min, and then subjected to centrifuge (Eppendorf Co.). The supernatant was collected and concentrated at 35° C. using cyclone. The residue was re-dissolved in 50 μL of moblie phase and 5 μL of the resulting solution was injected into LC/MS and analyzed.
(§5) In Tables 8 and 9, “iv” refers to a intravenous injection; “po” refers to a per oral; “AUC plasma” refers to an area under the plasma level-time curve; “Cmax” refers to a maximum plasma concentration; “Tmax” refers to a time to reach Cmax, “BA” refers to a bioavailability (%) according to Equation 2 below; “AUC Brain” refers to a area under the brain tissue level-time curve; and “AUCBrain/AUCPlasma” refers to a passage rate of the test compound to the brain.
Bioavailability (%)=[(AUCpo/AUCiv)×(Doseiv/Dosepo)×100] Equation 2
wherein, AUCpo means an area under the blood concentration time curve (AUC) after the per oral administration, AUCiv means an AUC after the intravenous injection, Doseiv means an amount of the intravenous injection, and Dosepo means an amount of the per oral administration.

The nature of data set [2]: Passage test through the blood-brain barrier in mice (brain tissue). The conditions noted are these: for Kp / Tmax: mouse; for Kp: brain; for Tmax / Cmax (brain): brain tissue. It counts as in vivo, ICR mice. Here is the method: as §1, §2
(§6) 2) Measurement of Concentration in Blood and Tissue (Simultaneous Test)
(§7) At 30 min, 1 hr, 2 hr, 4 hr, 10 hr and 24 hr after administration of test compound, the mice and rats were subjected to insufflations narcosis using isoflorane, followed by cutting the abdomen open. 1 mL of blood was collected from abdominal veins into the tube containing heparin (1000 IU/mL, 3 μl). The obtained blood sample was centrifuged at 12,000 rpm, for 2 min to obtain plasma. The obtained plasma was kept in freezer at −80° C. until the analysis.
(§8) (2) Organ Tissue-Sampling
(§9) The mice and rats from which the blood sample was obtained were subjected to bloodletting, and then, brain tissue of the mice and rats was collected. The brain tissue thus obtained was washed with physiological saline once or twice to remove blood. The weight of the brain tissue was measured after the removal of adipose tissue and peripheral tissue. 4% bovine serum albumin (BSA) solution diluted with 10-fold was added to the brain tissue. The resulting solution was subjected to homogenization using the homogenizer. The diluted homogenate thus obtained was placed in 2 ml of tube and was kept in freezer at −80° C. until the analysis. All of the treatments to the samples were performed in ice.
as §3, §4
(§10) 50 μL of plasma were placed in 2.0 mL of tube having a cap (Eppendorf Co.) and acidified by adding 20 μL of 0.1% formic acid thereto. An internal standard solution and 1 mL of ethyl acetate as an extract solvent were added to the resultant solution. The resultant solution was mixed using thermomixer (Eppendorf Co.) at 1400 rpm for 5 min and then subjected to centrifuge (Eppendorf Co.). The supernatant was collected and concentrated at 35° C. using cyclone. The residue was re-dissolved in 50 μL of moblie phase and 5 μL of the resulting solution was injected into LC/MS and analyzed.
as §5

Data set [3] is described as follows: Passage test through the blood-brain barrier in rats (brain tissue). It counts as in vivo, SD rats. The note with it: for Cmax (brain) / Tmax: brain tissue; for Tmax / Kp: SD, rat; for Kp: brain, read-out: AUCBrain/AUC Plasma. The protocol:
as §1, §2, §6, §7, §8, §9, §3, §4, §10, §5

Setting [4] is: ICR (mice), SD (rats), mice and rats, Tables 8 and 9, read-out: passage ability through the blood-brain barrier compared with plasma.
Setting [5] is: ICR, mice, 1.25 mg/kg, iv, read-out: AUCBrain/AUC Plasma.
Where [6] appears, read: ICR, mice, 2.5 mg/kg, po, read-out: AUCBrain/AUC Plasma.

SMILES strings stand for the structures.

`COc1ccc2cc(C=Cc3ccc(N(C)C)cc3)oc2c1` [Compound 9, 6-methoxy-2-(4-dimethylaminostyryl)benzofuran] showed a BA in data set [1] of 27.8%. For the same compound, the AUC in data set [1] (1.25 mg/kg, iv) was 1640 ng·h/mL; in data set [1] (2.5 mg/kg, po) it was 908 ng·h/mL. This compound yielded a Cmax in data set [1] (2.5 mg/kg, po) of 215 ng/mL. In addition, the Tmax in data set [1] (2.5 mg/kg, po) is 1.67 h; in data set [2] (ICR, mice, 2.5 mg/kg, po), 4 h; in data set [3] (2.5 mg/kg, po) it was 2 h. Moreover, the Kp in data set [2] (setting [4]) was at least 1; in data set [2] (setting [5]), 12.1; in data set [2] (setting [6]) it was 12.6; in data set [3] (1.25 mg/kg, iv), 11; in data set [3] (2.5 mg/kg, po) it was 16.8. Further, the “AUC Brain” value was 6101.86 ng·h/mL in data set [2] (mice, 1.25 mg/kg, iv); 8137.42 ng·h/mL in data set [2] (mice, 2.5 mg/kg, po); 17939.63 ng·h/mL in data set [3] (1.25 mg/kg, iv); 15241.92 ng·h/mL in data set [3] (2.5 mg/kg, po). Further, the “Cmax (brain)” value in data set [2] (mice, 2.5 mg/kg, po) worked out at 899.33 ng/mL; in data set [3] (2.5 mg/kg, po), 1309.00 ng/mL.

In data set [1], `CNc1ccc(C=Cc2cc3cc(OC)ccc3o2)cc1` [Compound 17, 5-methoxy-2-(4-methylaminostyryl)benzofuran] had a BA of 22.4%. For the same compound, the AUC in data set [1] (1.25 mg/kg, iv) was determined as 1140 ng·h/mL; in data set [1] (2.5 mg/kg, po), 516 ng·h/mL. The peak concentration (Cmax) in data set [1] (2.5 mg/kg, po) stood at 122 ng/mL. Besides, the Tmax was 1.33 h in data set [1] (2.5 mg/kg, po); 2 h in data set [2] (ICR, mice, 2.5 mg/kg, po); 1.67 h in data set [3] (2.5 mg/kg, po). For the same compound, the Kp in data set [2] (setting [4]) was at least 1; in data set [2] (setting [5]) it was 10.6; in data set [2] (setting [6]) it was 7.2; in data set [3] (1.25 mg/kg, iv) it was 7.6; in data set [3] (2.5 mg/kg, po) it was 21.8. Besides, the “AUC Brain” value is 2525.45 ng·h/mL in data set [2] (mice, 1.25 mg/kg, iv); 2354.58 ng·h/mL in data set [2] (mice, 2.5 mg/kg, po); 8740.33 ng·h/mL in data set [3] (1.25 mg/kg, iv); 11237.67 ng·h/mL in data set [3] (2.5 mg/kg, po). In addition, the “Cmax (brain)” value in data set [2] (mice, 2.5 mg/kg, po) stood at 462.67 ng/mL; in data set [3] (2.5 mg/kg, po), 1406.67 ng/mL.

The AUC is concentration integrated over time. A higher AUC goes with high exposure. Broadly, the Cmax is the maximum level reached in the sampled fluid or tissue. Usually Tmax stands for the time from dosing to the highest level.

Source of the values: patent US20110124888A1, “STYRYLBENZOFURAN DERIVATIVES AS INHIBITORS FOR BETA-AMYLOID FIBRIL FORMATION AND PREPARATION METHOD THEREOF” (Korea Institute of Science and Technology, priority 2008, published 2011).
